Data from US20260265230A1, “FLUORESCENT AND SELF-ASSEMBLING UREIDOPYRIMIDINONE CONJUGATES AND PREPARATION THEREOF” (COUNCIL OF SCIENTIFIC AND INDUSTRIAL RESEARCH AN INDIAN …, priority 2022, published 2026).

Experiment: Fluorescent studies (absorption and emission spectra) in DMSO
Format: physicochemical
Conditions: concentration 1×10^−5 M; for maximum absorption wavelength (λabs) / maximum emission wavelength (λems): FIG. 1
Text: FIG. 1 represents absorption and emission spectra of (a) coumarin-UpyFlAA (6) and (b) hydroquinone-UPy-FlAA(10), in accordance with an implementation of the present disclosure.

Row | Structure (SMILES) | fluorescence (relative fluorescence intensity) | maximum absorption wavelength (λabs) [nm] | maximum emission wavelength (λems) [nm]
1 | CCN(CC)c1ccc2cc(-c3cc(=O)[nH]c(NC(=O)NCCCC[C@H](NC(=O)OC(C)(C)C)C(=O)O)n3)c(=O)oc2c1 [Compound 6, N2-(tert-butoxycarbonyl)-N6-((4-(7-(diethylamino)-2-oxo-2H-chromen-3-yl)-6-oxo-1,6-dihydropyrimidin-2-yl)carbamoyl)lysine] | high level of fluorescence | 437 | 487
2 | COc1ccc(OC)c(-c2cc(=O)nc(NC(=O)NCCCC[C@H](NC(=O)OC(C)(C)C)C(=O)O)[nH]2)c1 [Compound 10, N2-(tert-butoxycarbonyl)-N6-((6-(2,5-dimethoxyphenyl)-4-oxo-1,4-dihydropyrimidin-2-yl)carbamoyl)lysine] | high level of fluorescence | 310 | 421
